These are literature values, as cited in PubChem BioAssay AID1259409 (Chemical Carcinogenesis Research Information System (CCRIS), 2018).

The test system of this series is rodent chemically induced tumor inhibition, incidence and multiplicity. The experiment in a line: CCRIS tumor inhibitor studies.

On to `CSCC[C@H](N)C(=O)O`, for which the “tumour outcome (control, treated, inhibition, significance)” value reads like this: (Carcinogen: 7,12-DIMETHYLBENZ[A]ANTHRACENE, 57-97-6, Dose [Inhibitor]: 0.06 MMOL/G DIET DAILY FOR 17 WK STARTING 1 WK PRIOR TO CARCINOGEN TREATMENT AND CONTINUING THROUGH THE END OF THE STUDY, Route [Inhibitor]: ORAL, Species: RAT, Strain/Sex: SPRAGUE-DAWLEY/FEMALE, Target Tissue: Type of Lesion: MAMMARY GLAND: TUMOR, Dose [Carcinogen]: 12 MG IN 1 ML OLIVE OIL ONCE, Promoter: NONE USED) 59%, 72%, -22%, not calculated; (Carcinogen: N-METHYL-N'-NITRO-N-NITROSOGUANADINE, 70-25-7, Dose [Inhibitor]: 0, 150 MG/KG BW 1/2 D FOR 26 WK BEGINNING POST CARCINOGEN TREATMENT (STUDY DURATION: 52 WK), Route [Inhibitor]: SUBCUTANEOUS, Species: RAT, Strain/Sex: WISTAR/MALE, Target Tissue: Type of Lesion: STOMACH: ADENOCARCINOMA, Dose [Carcinogen]: 25 UG/ML IN DRINKING WATER FOR 25 WK, Promoter: AMMONIUM ACETATE, 631-61-8, SODIUM HYPOCHLORITE, 7681-52-9, Promoter: AMMONIUM ACETATE, 631-61-8, SODIUM HYPOCHLORITE, 7681-52-9) 19/19 (100%), 9/18 (50%), 50%, p<0.01; (Carcinogen: N-NITROSOBIS(2-OXOPROPYL)AMINE [60559-38-4], Dose [Inhibitor]: 2% IN DIET FOR 27 WK BEGINNING IMMEDIATELY POST LAST CARCINOGEN DOSE (STUDY DURATION: 32 WK), Route [Inhibitor]: ORAL, Species: HAMSTER, Strain/Sex: SYRIAN/FEMALE, Target Tissue: Type of Lesion: PANCREAS: ADENOCARCINOMA, Dose [Carcinogen]: 10 MG/KG BW 1X/WK FOR 5 WK (STUDY DURATION: 32 WK), Promoter: NONE) 20/28 (71.4%), 7/19 (36.8%), 48%, p<0.05.
For the compound `c1cc2ccc3ccc4ccc5cccc6c(c1)c2c3c4c56`, the “tumour outcome (control, treated, inhibition, significance)” value is on record as 14/50 (28%), 19/50 (38%), -36%, not calculated (Carcinogen: BENZO[A]PYRENE, 50-32-8, Dose [Inhibitor]: 7 UG IN 0.1 ML ACETONE 3/WK ADMINISTERED SIMULTANEOUSLY WITH CARCINOGEN FOR DURATION OF STUDY (STUDY DURATION: 368 D), Route [Inhibitor]: DERMAL, Species: MOUSE, Strain/Sex: ICR/FEMALE, Target Tissue: Type of Lesion: SKIN: PAPILLOMA, Dose [Carcinogen]: 5 UG IN 0.1 ML ACETONE 3/WK FOR DURATION OF STUDY, Promoter: NONE USED); 10/50 (20%), 10/50 (20%), 0%, not calculated (Carcinogen: BENZO[A]PYRENE, 50-32-8, Dose [Inhibitor]: 7 UG IN 0.1 ML ACETONE 3/WK ADMINISTERED SIMULTANEOUSLY WITH CARCINOGEN FOR DURATION OF STUDY (STUDY DURATION: 368 D), Route [Inhibitor]: DERMAL, Species: MOUSE, Strain/Sex: ICR/FEMALE, Target Tissue: Type of Lesion: SKIN: SQUAMOUS CARCINOMA, Dose [Carcinogen]: 5 UG IN 0.1 ML ACETONE 3/WK FOR DURATION OF STUDY, Promoter: NONE USED); 14/50 (28%), 20/50 (40%), -43%, not calculated (Carcinogen: BENZO[A]PYRENE, 50-32-8, Dose [Inhibitor]: 21 UG IN 0.1 ML ACETONE 3/WK ADMINISTERED SIMULTANEOUSLY WITH CARCINOGEN FOR DURATION OF STUDY (STUDY DURATION: 368 D), Route [Inhibitor]: DERMAL, Species: MOUSE, Strain/Sex: ICR/FEMALE, Target Tissue: Type of Lesion: SKIN: PAPILLOMA, Dose [Carcinogen]: 5 UG IN 0.1 ML ACETONE 3/WK FOR DURATION OF STUDY, Promoter: NONE USED); 10/50 (20%), 18/50 (36%), -80%, not calculated (Carcinogen: BENZO[A]PYRENE, 50-32-8, Dose [Inhibitor]: 21 UG IN 0.1 ML ACETONE 3/WK ADMINISTERED SIMULTANEOUSLY WITH CARCINOGEN FOR DURATION OF STUDY (STUDY DURATION: 368 D), Route [Inhibitor]: DERMAL, Species: MOUSE, Strain/Sex: ICR/FEMALE, Target Tissue: Type of Lesion: SKIN: SQUAMOUS CARCINOMA, Dose [Carcinogen]: 5 UG IN 0.1 ML ACETONE 3/WK FOR DURATION OF STUDY, Promoter: NONE USED).
For the compound `C/C(=C\c1ccc(C(=O)O)cc1)c1ccc2c(c1)C(C)(C)CCS2`, the “tumour outcome (control, treated, inhibition, significance)” value (Carcinogen: 7,12-DIMETHYLBENZ[A]ANTHRACENE, 57-97-6, Dose [Inhibitor]: 1.7 NMOL IN 0.2 ML ACETONE 1 HR PRIOR TO EACH PROMOTER DOSE FOR 12 WK (STUDY DURATION: 14 WK), Route [Inhibitor]: DERMAL, Species: MOUSE, Strain/Sex: SENCAR/FEMALE, Target Tissue: Type of Lesion: SKIN: PAPILLOMA, Dose [Carcinogen]: 200 NMOL IN 0.2 ML ACETONE ONCE, Promoter: 12-O-TETRADECANOYLPHORBOL-13-ACETATE, 16561-29-8) is 100%, 100%, 0%, not calculated; the “tumour outcome (control, treated, inhibition, significance)” value (Carcinogen: 7,12-DIMETHYLBENZ[A]ANTHRACENE, 57-97-6, Dose [Inhibitor]: 1.7 NMOL IN 0.2 ML ACETONE 1 HR PRIOR TO EACH PROMOTER DOSE FOR 20 WK (STUDY DURATION: 22 WK), Route [Inhibitor]: DERMAL, Species: MOUSE, Strain/Sex: CD-1/FEMALE, Target Tissue: Type of Lesion: SKIN: PAPILLOMA, Dose [Carcinogen]: 200 NMOL IN 0.2 ML ACETONE ONCE, Promoter: 12-O-TETRADECANOYLPHORBOL-13-ACETATE, 16561-29-8) is on record as 94%, 93%, 1%, not calculated; the “tumour outcome (control, treated, inhibition, significance)” value (Carcinogen: 7,12-DIMETHYLBENZ[A]ANTHRACENE, 57-97-6, Dose [Inhibitor]: 17 NMOL IN 0.2 ML ACETONE 1 HR PRIOR TO EACH PROMOTER DOSE FOR 12 WK (STUDY DURATION: 14 WK), Route [Inhibitor]: DERMAL, Species: MOUSE, Strain/Sex: SENCAR/FEMALE, Target Tissue: Type of Lesion: SKIN: PAPILLOMA, Dose [Carcinogen]: 200 NMOL IN 0.2 ML ACETONE ONCE, Promoter: 12-O-TETRADECANOYLPHORBOL-13-ACETATE, 16561-29-8) is 100%, 90%, 10%, not calculated; the “tumour outcome (control, treated, inhibition, significance)” value (Carcinogen: 7,12-DIMETHYLBENZ[A]ANTHRACENE, 57-97-6, Dose [Inhibitor]: 17 NMOL IN 0.2 ML ACETONE 1 HR PRIOR TO EACH PROMOTER DOSE FOR 20 WK (STUDY DURATION: 22 WK), Route [Inhibitor]: DERMAL, Species: MOUSE, Strain/Sex: CD-1/FEMALE, Target Tissue: Type of Lesion: SKIN: PAPILLOMA, Dose [Carcinogen]: 200 NMOL IN 0.2 ML ACETONE ONCE, Promoter: 12-O-TETRADECANOYLPHORBOL-13-ACETATE, 16561-29-8) is 94%, 38%, 60%, not calculated; the “tumour outcome (control, treated, inhibition, significance)” value (Carcinogen: 7,12-DIMETHYLBENZ[A]ANTHRACENE, 57-97-6, Dose [Inhibitor]: 170 NMOL IN 0.2 ML ACETONE 1 HR PRIOR TO EACH PROMOTER DOSE FOR 12 WK (STUDY DURATION: 14 WK), Route [Inhibitor]: DERMAL, Species: MOUSE, Strain/Sex: SENCAR/FEMALE, Target Tissue: Type of Lesion: SKIN: PAPILLOMA, Dose [Carcinogen]: 200 NMOL IN 0.2 ML ACETONE ONCE, Promoter: 12-O-TETRADECANOYLPHORBOL-13-ACETATE, 16561-29-8) is listed as 100%, 38%, 62%, not calculated; the “tumour outcome (control, treated, inhibition, significance)” value (Carcinogen: 7,12-DIMETHYLBENZ[A]ANTHRACENE, 57-97-6, Dose [Inhibitor]: 170 NMOL IN 0.2 ML ACETONE 1 HR PRIOR TO EACH PROMOTER DOSE FOR 20 WK (STUDY DURATION: 22 WK), Route [Inhibitor]: DERMAL, Species: MOUSE, Strain/Sex: CD-1/FEMALE, Target Tissue: Type of Lesion: SKIN: PAPILLOMA, Dose [Carcinogen]: 200 NMOL IN 0.2 ML ACETONE ONCE, Promoter: 12-O-TETRADECANOYLPHORBOL-13-ACETATE, 16561-29-8) is listed as 94%, 24%, 74%, not calculated.
